Consider 20 molecules from patent US10954253B2, “1,2-dihydro-3H-pyrazolo[3,4-d]pyrimidin-3-one derivative as Wee1 inhibitor” (SHIJIAZHUANG SAGACITY NEW DRUG DEVELOPMENT CO., LTD., priority 2017, dated 2021).

Each structure is given as a SMILES string.

In this experiment the target is Wee1 (Homo sapiens (Human), UniProt P30291). As to the kind of experiment: In vitro enzymatic inhibitory activity (33P-ATP filter-binding kinase assay, MBP substrate). Type of experiment: biochemical. The following applies: Wee-1 150 nM, MBP 20 μM. The protocol: The compounds of the present invention for experimental use were all self-prepared, and their chemical names and structural formulas are shown in the preparation embodiments of the respective compounds. The experimental tests were carried out in Reaction Biology Corporation, USA, and the experimental results were provided by the company. Basic reaction buffer: 20 mM hydroxyethylpiperazine ethanesulfuric acid (pH 7.5), 10 mM magnesium chloride, 1 mM EGTA, 0.02% Brij35, 0.02 mg/mL bovine serum albumin, 0.1 mM Na3VO4, 2 mM DTT, 1% DMSO Enzyme: Wee-1 concentration is 150 nM Matrix: MBP concentration is 20 μM The tested compound was formulated into a 5 mM solution with 100% DMSO, and a 10 points 3-fold gradient dilution was performed with DMSO through an automated pipetting station epMotion 5070. 1. Fresh matrix configuration reaction buffer was prepared; 2. The Wee-1 was added into the matrix solution and shaked gently; 3. DMSO solution of the compound were added into the kinase reaction mixture using an acoustic technique (Echo 550; nanoliter range) and incubated for 20 minutes at room temperature; 4. ^33P-ATP (specific activity, 10 μCi/μL) was added into the reaction mixture to stimulate the reaction; 5. Incubated for 2 hours at room temperature; 6. Kinase activity was detected by filter-binding method.
Sequence of Wee1 (P30291 whole entry): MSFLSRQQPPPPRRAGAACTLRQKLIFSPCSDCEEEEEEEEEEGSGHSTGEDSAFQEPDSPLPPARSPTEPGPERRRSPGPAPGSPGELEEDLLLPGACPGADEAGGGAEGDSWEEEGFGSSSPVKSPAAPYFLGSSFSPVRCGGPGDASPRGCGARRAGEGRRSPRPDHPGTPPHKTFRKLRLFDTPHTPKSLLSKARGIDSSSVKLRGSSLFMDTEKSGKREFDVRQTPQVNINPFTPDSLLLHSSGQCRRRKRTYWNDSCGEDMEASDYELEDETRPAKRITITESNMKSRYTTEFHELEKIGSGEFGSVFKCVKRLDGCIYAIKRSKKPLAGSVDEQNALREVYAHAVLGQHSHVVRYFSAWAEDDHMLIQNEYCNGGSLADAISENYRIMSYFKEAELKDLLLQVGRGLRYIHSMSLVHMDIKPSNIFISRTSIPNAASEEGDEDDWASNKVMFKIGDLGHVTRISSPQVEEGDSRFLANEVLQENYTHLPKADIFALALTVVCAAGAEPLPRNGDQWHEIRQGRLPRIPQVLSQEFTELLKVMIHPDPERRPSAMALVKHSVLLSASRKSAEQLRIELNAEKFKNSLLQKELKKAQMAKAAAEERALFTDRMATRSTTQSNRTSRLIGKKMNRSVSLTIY
In turn, `C=CCn1c(=O)c2cnc(Nc3ccc(N4CCC5(CCN(CC#N)CC5)CC4)cc3)nc2n1-c1cccc(C(C)(C)O)n1` [Compound 63, 2-(9-(4((2-allyl-1(6-(2-hydroxypropan-2-yl)pyridin-2-yl)-3-oxo-2,3-dihydro-1H-pyrazolo[3,4-d]pyrimidin-6-yl)amino)phenyl)-3,9-diazaspiro[5.5]undecan-3-yl)acetonitrile] showed a concentration for half-maximal inhibition (IC50) of 8.3 nM. That is a single-digit nanomolar value. With `C=CCn1c(=O)c2cnc(Nc3ccc(N4CCC5(CCN(CCOC)CC5)CC4)cc3)nc2n1-c1cccc(C(C)(C)O)n1` [Compound 64, 2-allyl-1-(6-(2-hydroxypropan-2-yl)pyridin-2-yl)-6-((4-(9-(2-methoxylethyl)-3,9-diazaspiro[5.5]undecan-3-yl)phenyl)amino)-1H-pyrazolo[3,4-d]pyrimidin-3(2H)-one] the figure was 9.9 nM; with `C=CCn1c(=O)c2cnc(Nc3ccc(N4CCC5(CCN(C)CC5)CC4)cc3)nc2n1-c1cccc(C2(F)CC(F)(F)C2)n1` [Compound 65, 2-allyl-6((4-(9-methyl-3,9-diazaspiro[5.5]undecan-3-yl)phenyl)amino)-1-(6-(1,3,3-trifluorocyclobutyl)pyridin-2-yl)-1H-pyrazolo[3,4-d]pyrimidin-3(2H)-one], 41.6 nM.

Consider `C=CCn1c(=O)c2cnc(Nc3ccc(N4CCC5(CCN(C)CC5)CC4)cc3)nc2n1-c1cccc(C2(O)CC(F)(F)C2)n1` [Compound 66, 2-allyl-1-(6-(3,3-difluoro-1-hydroxycyclobutyl)pyridin-2-yl)-6-((4-(9-methyl-3,9-diazaspiro[5.5]undecan-3-yl)phenyl)amino)-1H-pyrazolo[3,4-d]pyrimidin-3(2H)-one], for which the half-maximal inhibitory concentration (IC50) is 15 nM.

`C=CCn1c(=O)c2cnc(Nc3ccc(N4CCC5(CCN(C)CC5)CC4)cc3)nc2n1-c1cccc(C(C)C)n1` [Compound 67] came in with a concentration for half-maximal inhibition (IC50) of 12.8 nM. This IC50 and that of the molecule before are within 1.5-fold of each other. In turn, `C=CCn1c(=O)c2cnc(Nc3ccc(N4CCC5(CCN(C)CC5)CC4)cc3)nc2n1-c1cccc(C2(C)CC2)n1` [Compound 68, 2-allyl-6-((4-(9-methyl-3,9-diazaspiro[5.5]undecan-3-yl)phenyl)amino)-1-(6-(1-methylcyclopropyl)pyridin-2-yl)-1H-pyrazolo[3,4-d]pyrimidin-3(2H)-one] gave an IC50 of 30.4 nM. This IC50 lies about 2.4-fold higher than the previous one. `C=CCn1c(=O)c2cnc(Nc3ccc(N4CCC5(CC4)CCN(C4COC4)CC5)cc3)nc2n1-c1cccc(C(C)(C)O)n1` [Compound 69] returned a concentration for half-maximal inhibition (IC50) of 5.7 nM. Against the preceding molecule, the IC50 is about 5.3-fold lower.

Turning to `C=CCn1c(=O)c2cnc(Nc3ccc(N4CCC5(CCN(C(=O)OC)CC5)CC4)cc3)nc2n1-c1cccc(C(=O)N(C)C)n1` [Compound 70, methyl-9-(4-((2-allyl-1-(6-(dimethylaminoformyl)pyridin-2-yl)-3-oxo-2,3-dihydro-1H-pyrazolo[3,4-d]pyrimidin-6-yl)amino)phenyl)-3,9-diazaspiro[5.5]undecan-3-carboxylate], the IC50 came to 20.3 nM. The value for `C=CCn1c(=O)c2cnc(Nc3ccc(N4CCC5(CCN(C(=O)OC)CC5)CC4)cc3)nc2n1-c1cccc(C2(O)COC2)n1` [Compound 71, methyl-9-(4-((2-allyl-1-(6-(3-hydroxyoxetan-3-yl)pyridin-2-yl)-3-oxo-2,3-dihydro-1H-pyrazolo[3,4-d]pyrimidin-6-yl)amino)phenyl)-3,9-diazaspiro[5.5]undecan-3-carboxylate] was 15.7 nM; that for `C=CCn1c(=O)c2cnc(Nc3ccc(N4CCC5(CCN(C)CC5)CC4)cc3)nc2n1-c1cccc(N2CC(F)(F)C2)n1` [Compound 72] was 8.2 nM; that for `C=CCn1c(=O)c2cnc(Nc3ccc(N4CCC5(CCN(C)CC5)CC4)cc3)nc2n1-c1cccc(C2(OC)COC2)n1` [Compound 73, 2-allyl-1-(6-(3-methoxyoxetan-3-yl)pyridin-2-yl)-6-((4-(9-methyl-3,9-diazaspiro[5.5]undecan-3-yl)phenyl)amino)-1H-pyrazolo[3,4-d]pyrimidin-3(2H)-one] was 5.3 nM. On to `C=CCn1c(=O)c2cnc(Nc3ccc(N4CCC5(CCN(C)CC5)CC4)cc3)nc2n1-c1cccc([C@@](C)(O)C(F)(F)F)n1` [Compound 74, (R)-2-allyl-6-((4-(9-methyl-3,9-diazaspiro[5.5]undecan-3-yl)phenyl)amino)-1-(6-(1,1,1-trifluoro-2-hydroxypropan-2-yl)pyridin-2-yl)-1H-pyrazolo[3,4-d]pyrimidin-3(2H)-one], for which the IC50 was 13 nM. This IC50 is about 2.5-fold higher than that of the molecule before. The molecule `C=CCn1c(=O)c2cnc(Nc3ccc(N4CCC5(CCN(C)CC5)CC4)cc3)nc2n1-c1cccc([C@](C)(O)C(F)(F)F)n1` [Compound 75, (S)-2-allyl-6-((4-(9-methyl-3,9-diazaspiro[5.5]undecan-3-yl)phenyl)amino)-1-(6-(1,1,1-trifluoro-2-hydroxypropan-2-yl)pyridin-2-yl)-1H-pyrazolo[3,4-d]pyrimidin-3(2H)-one] displayed a half-maximal inhibitory concentration (IC50) of 17 nM. With `C=CCn1c(=O)c2cnc(Nc3ccc(N4CCC5(CCNCC5)CC4)cc3)nc2n1-c1cccc(C(C)(C)O)n1` [Compound 76, 6-((4-(-3,9-diazaspiro[5.5]undecan-3-yl)phenyl)amino)-2-allyl-1-(6-(2-hydroxypropan-2-yl)pyridin-2-yl)-1H-pyrazolo[3,4-d]pyrimidin-3(2H)-one] the figure was 13 nM; with `C=CCn1c(=O)c2cnc(Nc3ccc(N4CCC5(CCNCC5)CC4)cc3)nc2n1-c1cccc(C2(F)COC2)n1` [Compound 77, 6-((4-(-3,9-diazaspiro[5.5]undecan-3-yl)phenyl)amino)-2-allyl-1-(6-(3-fluoro-oxetan-3-yl)pyridin-2-yl)-1H-pyrazolo[3,4-d]pyrimidin-3(2H)-one], 9 nM.

Molecule `C=CCn1c(=O)c2cnc(Nc3ccc(N4CCC5(CCN(C)CC5)CC4)cc3)nc2n1-c1cccc(C(C)(O)C(F)F)n1` (centres unmarked) [Compound 78] came in with an IC50 of 32 nM. The value for `C=C(F)Cn1c(=O)c2cnc(Nc3ccc(N4CCC5(CCN(C)CC5)CC4)cc3)nc2n1-c1cccc(C(C)(C)O)n1` [Compound 79, 2-(2-fluoroallyl)-1-(6-(2-hydroxypropan-2-yl)pyridin-2-yl)-6-((4-(9-methyl-3,9-diazaspiro[5.5]undecan-3-yl)phenyl)amino)-1H-pyrazolo[3,4-d]pyrimidin-3(2H)-one] was 43 nM; that for `C=CCn1c(=O)c2cnc(Nc3ccc(N4CCC5(CCN(C)CC5)CC4)cc3)nc2n1-c1ccc(F)c(C(C)(C)O)n1` [Compound 80, 2-allyl-1-(5-fluoro-6-(2-hydroxypropan-2-yl)pyridin-2-yl)-6-((4-(9-methyl-3,9-diazaspiro[5.5]undecan-3-yl)phenyl)amino)-1H-pyrazolo[3,4-d]pyrimidin-3(2H)-one] was 49 nM. `C=CCn1c(=O)c2cnc(Nc3ccc(N4CCC5(CCN(C)CC5)CC4)cc3)nc2n1-c1ccccc1` [Embodiment 1, 2-allyl-6-((4-(9-methyl-3,9-diazaspiro[5.5]undecan-3-yl)phenyl)amino)-1-phenyl-1H-pyrazolo[3,4-d]pyrimidin-3(2H)-one] showed an IC50 of 67.4 nM. The value for `C=CCn1c(=O)c2cnc(Nc3ccc(N4CCC5(CCNCC5)CC4)cc3)nc2n1-c1ccccc1` [Embodiment 2, 6-((4-(3,9-diazaspiro[5.5]undecan-3-yl)phenyl)amino)-2-allyl-1-phenyl-1H-pyrazolo[3,4-d]pyrimidin-3(2H)-one] was 43.6 nM.

The term IC50 denotes the concentration that gives 50% inhibition. Low readings indicate higher potency, high ones lower potency.
